Measurements taken from patent publication US20160220569A1, “CDK4/6 Inhibitor Dosage Formulations For The Protection Of Hematopoietic Stem And Progenitor Cells During Chemotherapy” (G1 Therapeutics, Inc., priority 2015, published 2016).
Read-outs that look alike come from different tables or passages of the source.

Test: 14-day oral gavage toxicokinetic study in rats
Type: in vivo
Conditions: female, rat, plasma, po; for concentration at 1 h / concentration at 2 h / concentration at 4 h / concentration at 8 h / concentration at 12 h / concentration at 24 h / concentration at 0.5 h / concentration at […]: rats; for concentration at […]: Day 14, […]; for half-life: read-out: t½ (converted)
Procedure: Plasma was obtained from blood samples collected from rats in a composite sampling scheme, with 3 samples collected per sex, per dose, at each target collection time, as illustrated in Table 21 to Table 25. Samples were collected from the vehicle control group on Day 1 and Day 14 at 3 hour after administration. […] Blood samples were collected in tubes containing K3EDTA as an anticoagulant and placed on ice until processed to plasma via centrifugation. Samples were stored frozen at −80° C. until shipment to the bioanalytical laboratory for analysis.
The following parameters were determined:
Cmax: Maximum observed plasma concentration (ng/mL).
A value of 0 ng/mL was assigned to all values below the lower limit of quantitation (BLQ, <10.0 ng/mL).
AUC(0-inf): Area under the plasma concentration vs. time curve extrapolated from 0 to infinity (ng*h/mL), calculated as AUC(0-t)+AUC(t-inf) where AUC(t-inf) is calculated as last measurable concentration (CLast) divided by ke, where ke is the elimination rate constant determined by linear regression of the last three analytically measured points on the log plasma concentration vs. time curve. The selection criteria of the data points for inclusion in the calculation of ke required that at least three data points representing the terminal phase (after Tmax) were regressed and that R2≧0.850 when rounded.
CL: Clearance (L/h/kg), calculated as the dose divided by AUC(0-t).
Vd: Volume of distribution (L/kg), calculated as dose divided by the product of ke and AUC(0-inf).
Vdss: Steady state volume of distribution (L/kg), calculated as clearance […] mean residence time, where mean residence time is calculated as the area under the first moment curve divided by AUC(0-t).
t½: Elimination half-life (h), calculated as ln(2)/ke, where ke is the elimination rate constant determined by linear regression. Half-life was defined as not determined if regression criteria (specified in AUC(0-inf) above) were not met.
Cmax/Dose: Normalized Cmax, calculated as Cmax divided by total dose.
AUC/Dose: Normalized AUC, calculated as AUC(0-t) divided by total dose.
ii. Statistical Analysis Mean and standard deviation (SD) were calculated in Watson. Values of BLQ were assigned a value of 0 ng/mL for mean calculations. Concentration values and derived TK parameters were reported to three significant figures.

[1] = 2 mg/kg, oral 2 mg/kg, Study Day 1, Female
[2] = 2 mg/kg, oral 2 mg/kg, Study Day 14, Female
[3] = 5 mg/kg, oral 5 mg/kg, Study Day 1, Female
[4] = 5 mg/kg, oral 5 mg/kg, Study Day 14, Female

CN1CCN(c2ccc(Nc3ncc4cc5n(c4n3)C3(CCCCC3)CNC5=O)nc2)CC1 [Compound 1, 2′-((5-(4-methylpiperazin-1-yl)pyridin-2-yl)amino)-7′,8′-dihydro-6′H-spiro[cyclohexane-1,9′-pyrazino[1′,2′:1,5]pyrrolo[2,3-d]pyrimidin]-6′-one]
concentration at 1 h (2 mg/kg, Mean Compound 1 Plasma Concentration, oral 2 mg/kg, Day 1, 1 h, Female): 91.4 ng/mL
concentration at 2 h (2 mg/kg, Mean Compound 1 Plasma Concentration, oral 2 mg/kg, Day 1, 2 h, Female): 196 ng/mL
concentration at 4 h (2 mg/kg, Mean Compound 1 Plasma Concentration, oral 2 mg/kg, Day 1, 4 h, Female): 175 ng/mL
concentration at 8 h (2 mg/kg, Mean Compound 1 Plasma Concentration, oral 2 mg/kg, Day 1, 8 h, Female): 96.7 ng/mL
concentration at 12 h (2 mg/kg, Mean Compound 1 Plasma Concentration, oral 2 mg/kg, Day 1, 12 h, Female): 82.2 ng/mL
concentration at 24 h (2 mg/kg, Mean Compound 1 Plasma Concentration, oral 2 mg/kg, Day 1, 24 h, Female): 13 ng/mL
concentration at 0.5 h (2 mg/kg, Mean Compound 1 Plasma Concentration, oral 2 mg/kg, Day 14, 0.5 h, Female): 150 ng/mL
concentration at 1 h (2 mg/kg, Mean Compound 1 Plasma Concentration, oral 2 mg/kg, Day 14, 1 h, Female): 111 ng/mL
concentration at 2 h (2 mg/kg, Mean Compound 1 Plasma Concentration, oral 2 mg/kg, Day 14, 2 h, Female): 212 ng/mL
concentration at 8 h (2 mg/kg, Mean Compound 1 Plasma Concentration, oral 2 mg/kg, Day 14, 8 h, Female): 117 ng/mL
concentration at 12 h (2 mg/kg, Mean Compound 1 Plasma Concentration, oral 2 mg/kg, Day 14, 12 h, Female): 48.7 ng/mL
concentration at 24 h (2 mg/kg, Mean Compound 1 Plasma Concentration, oral 2 mg/kg, Day 14, 24 h, Female): 10.8 ng/mL
concentration at […] (2 mg/kg, Mean Compound 1 Plasma Concentration, oral 2 mg/kg, Female): 10 ng/mL
AUC(0-inf) [1]: 2160 ng·h/mL
AUC(0-t) [1]: 2060 ng·h/mL
Cmax [1]: 196 ng/mL
Tmax [1]: 2 h
half-life [1]: 5.25 h
AUC(0-inf) [2]: 1850 ng·h/mL
AUC(0-t) [2]: 1770 ng·h/mL
Cmax [2]: 212 ng/mL
Tmax [2]: 2 h
half-life [2]: 4.83 h
concentration at 0.5 h (5 mg/kg, Individual Compound 1 Plasma Concentration, daily oral 5 mg/kg, Day 1, Female, 0.5 h): 246 ng/mL
concentration at 2 h (5 mg/kg, Individual Compound 1 Plasma Concentration, daily oral 5 mg/kg, Day 1, Female, 2 h): 533 ng/mL
concentration at 8 h (5 mg/kg, Individual Compound 1 Plasma Concentration, daily oral 5 mg/kg, Day 1, Female, 8 h): 432 ng/mL
concentration at 24 h (5 mg/kg, Individual Compound 1 Plasma Concentration, daily oral 5 mg/kg, Day 1, Female, 24 h): 23.2 ng/mL
concentration at 1 h (5 mg/kg, Individual Compound 1 Plasma Concentration, daily oral 5 mg/kg, Day 14, Female, 1 h): 428 ng/mL
concentration at 4 h (5 mg/kg, Individual Compound 1 Plasma Concentration, daily oral 5 mg/kg, Day 14, Female, 4 h): 423 ng/mL
concentration at 8 h (5 mg/kg, Individual Compound 1 Plasma Concentration, daily oral 5 mg/kg, Day 14, Female, 8 h): 234 ng/mL
concentration at 12 h (5 mg/kg, Individual Compound 1 Plasma Concentration, daily oral 5 mg/kg, Day 14, Female, 12 h): 112 ng/mL
concentration at 24 h (5 mg/kg, Individual Compound 1 Plasma Concentration, daily oral 5 mg/kg, Day 14, Female, 24 h): 22.2 ng/mL
concentration at 0.5 h (5 mg/kg, Mean Compound 1 Plasma Concentration, oral 5 mg/kg, Day 1, 0.5 h, Female): 267 ng/mL
concentration at 1 h (5 mg/kg, Mean Compound 1 Plasma Concentration, oral 5 mg/kg, Day 1, 1 h, Female): 406 ng/mL
concentration at 2 h (5 mg/kg, Mean Compound 1 Plasma Concentration, oral 5 mg/kg, Day 1, 2 h, Female): 528 ng/mL
concentration at 4 h (5 mg/kg, Mean Compound 1 Plasma Concentration, oral 5 mg/kg, Day 1, 4 h, Female): 482 ng/mL
concentration at 8 h (5 mg/kg, Mean Compound 1 Plasma Concentration, oral 5 mg/kg, Day 1, 8 h, Female): 360 ng/mL
concentration at 12 h (5 mg/kg, Mean Compound 1 Plasma Concentration, oral 5 mg/kg, Day 1, 12 h, Female): 140 ng/mL
concentration at 24 h (5 mg/kg, Mean Compound 1 Plasma Concentration, oral 5 mg/kg, Day 1, 24 h, Female): 18.6 ng/mL
concentration at 0.5 h (5 mg/kg, Mean Compound 1 Plasma Concentration, oral 5 mg/kg, Day 14, 0.5 h, Female): 382 ng/mL
concentration at 1 h (5 mg/kg, Mean Compound 1 Plasma Concentration, oral 5 mg/kg, Day 14, 1 h, Female): 519 ng/mL
concentration at 2 h (5 mg/kg, Mean Compound 1 Plasma Concentration, oral 5 mg/kg, Day 14, 2 h, Female): 493 ng/mL
concentration at 4 h (5 mg/kg, Mean Compound 1 Plasma Concentration, oral 5 mg/kg, Day 14, 4 h, Female): 439 ng/mL
concentration at 8 h (5 mg/kg, Mean Compound 1 Plasma Concentration, oral 5 mg/kg, Day 14, 8 h, Female): 255 ng/mL
concentration at 12 h (5 mg/kg, Mean Compound 1 Plasma Concentration, oral 5 mg/kg, Day 14, 12 h, Female): 105 ng/mL
concentration at 24 h (5 mg/kg, Mean Compound 1 Plasma Concentration, oral 5 mg/kg, Day 14, 24 h, Female): 19.2 ng/mL
concentration at […] (5 mg/kg, Mean Compound 1 Plasma Concentration, oral 5 mg/kg, Female): 70.7 ng/mL
AUC(0-inf) [3]: 5440 ng·h/mL
AUC(0-t) [3]: 5340 ng·h/mL
Cmax [3]: 528 ng/mL
Tmax [3]: 2 h
half-life [3]: 3.82 h
AUC(0-inf) [4]: 4740 ng·h/mL
AUC(0-t) [4]: 4620 ng·h/mL
Cmax [4]: 519 ng/mL
